Source: ChEMBL document CHEMBL1201862, “PubChem BioAssay data set” (2004)
Activity calls are given as the source filed them.

Key:
Caspase-3 = biological target: T1, Caspase-3 (Homo sapiens, UniProt P42574); assay type: functional;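 note: Dose-response selectivity test against caspase-3 for candidate inhibitors of sentrin-specific proteases (SENPs)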
T1 sequence (P42574 whole entry): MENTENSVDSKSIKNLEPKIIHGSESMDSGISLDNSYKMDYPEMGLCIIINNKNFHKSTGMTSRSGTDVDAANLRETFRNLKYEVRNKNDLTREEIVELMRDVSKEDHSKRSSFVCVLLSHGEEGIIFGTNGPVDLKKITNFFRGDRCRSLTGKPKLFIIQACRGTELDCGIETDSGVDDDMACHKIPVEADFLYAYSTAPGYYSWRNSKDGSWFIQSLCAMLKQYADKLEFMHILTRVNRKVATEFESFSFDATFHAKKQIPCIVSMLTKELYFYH

[1] = biological target: T2, Sentrin-specific protease 7 (Homo sapiens, UniProt Q9BQF6); assay type: functional;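 note: Luminescence-based dose-response confirmation of ultra-high-throughput screening hits, measuring inhibition of SENP7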
T2 sequence (Q9BQF6 whole entry): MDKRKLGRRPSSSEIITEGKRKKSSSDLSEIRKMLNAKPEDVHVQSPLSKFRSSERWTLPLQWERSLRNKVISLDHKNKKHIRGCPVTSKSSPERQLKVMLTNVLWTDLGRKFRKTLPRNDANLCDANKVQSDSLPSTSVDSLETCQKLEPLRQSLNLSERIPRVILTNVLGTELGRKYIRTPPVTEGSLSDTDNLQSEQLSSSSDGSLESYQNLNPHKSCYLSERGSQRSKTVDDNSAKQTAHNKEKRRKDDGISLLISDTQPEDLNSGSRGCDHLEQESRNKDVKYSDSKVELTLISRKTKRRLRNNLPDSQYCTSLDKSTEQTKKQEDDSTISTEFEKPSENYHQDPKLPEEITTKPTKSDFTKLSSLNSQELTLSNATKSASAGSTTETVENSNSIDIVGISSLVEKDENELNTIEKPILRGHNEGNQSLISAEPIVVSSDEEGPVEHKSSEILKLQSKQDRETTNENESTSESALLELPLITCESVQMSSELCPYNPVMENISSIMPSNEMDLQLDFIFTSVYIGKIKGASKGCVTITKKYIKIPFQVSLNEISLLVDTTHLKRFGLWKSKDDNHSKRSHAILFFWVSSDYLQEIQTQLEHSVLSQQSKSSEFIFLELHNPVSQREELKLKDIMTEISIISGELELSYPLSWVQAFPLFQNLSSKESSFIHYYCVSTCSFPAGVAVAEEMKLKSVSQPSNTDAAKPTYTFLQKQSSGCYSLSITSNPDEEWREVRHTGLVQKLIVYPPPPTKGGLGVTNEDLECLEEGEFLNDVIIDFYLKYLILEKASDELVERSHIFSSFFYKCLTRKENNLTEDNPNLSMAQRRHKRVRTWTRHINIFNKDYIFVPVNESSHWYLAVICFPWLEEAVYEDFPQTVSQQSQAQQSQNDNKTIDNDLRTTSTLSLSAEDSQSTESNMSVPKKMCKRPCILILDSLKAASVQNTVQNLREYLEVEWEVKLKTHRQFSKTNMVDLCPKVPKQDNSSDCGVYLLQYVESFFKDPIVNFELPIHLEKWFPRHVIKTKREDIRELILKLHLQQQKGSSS

[2] = biological target: T3, Sentrin-specific protease 6 (Homo sapiens, UniProt Q9GZR1); assay type: functional;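 note: Luminescence-based dose-response confirmatory assay of SENP6 inhibition, following up an ultra-high-throughput screen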
T3 sequence (Q9GZR1 whole entry): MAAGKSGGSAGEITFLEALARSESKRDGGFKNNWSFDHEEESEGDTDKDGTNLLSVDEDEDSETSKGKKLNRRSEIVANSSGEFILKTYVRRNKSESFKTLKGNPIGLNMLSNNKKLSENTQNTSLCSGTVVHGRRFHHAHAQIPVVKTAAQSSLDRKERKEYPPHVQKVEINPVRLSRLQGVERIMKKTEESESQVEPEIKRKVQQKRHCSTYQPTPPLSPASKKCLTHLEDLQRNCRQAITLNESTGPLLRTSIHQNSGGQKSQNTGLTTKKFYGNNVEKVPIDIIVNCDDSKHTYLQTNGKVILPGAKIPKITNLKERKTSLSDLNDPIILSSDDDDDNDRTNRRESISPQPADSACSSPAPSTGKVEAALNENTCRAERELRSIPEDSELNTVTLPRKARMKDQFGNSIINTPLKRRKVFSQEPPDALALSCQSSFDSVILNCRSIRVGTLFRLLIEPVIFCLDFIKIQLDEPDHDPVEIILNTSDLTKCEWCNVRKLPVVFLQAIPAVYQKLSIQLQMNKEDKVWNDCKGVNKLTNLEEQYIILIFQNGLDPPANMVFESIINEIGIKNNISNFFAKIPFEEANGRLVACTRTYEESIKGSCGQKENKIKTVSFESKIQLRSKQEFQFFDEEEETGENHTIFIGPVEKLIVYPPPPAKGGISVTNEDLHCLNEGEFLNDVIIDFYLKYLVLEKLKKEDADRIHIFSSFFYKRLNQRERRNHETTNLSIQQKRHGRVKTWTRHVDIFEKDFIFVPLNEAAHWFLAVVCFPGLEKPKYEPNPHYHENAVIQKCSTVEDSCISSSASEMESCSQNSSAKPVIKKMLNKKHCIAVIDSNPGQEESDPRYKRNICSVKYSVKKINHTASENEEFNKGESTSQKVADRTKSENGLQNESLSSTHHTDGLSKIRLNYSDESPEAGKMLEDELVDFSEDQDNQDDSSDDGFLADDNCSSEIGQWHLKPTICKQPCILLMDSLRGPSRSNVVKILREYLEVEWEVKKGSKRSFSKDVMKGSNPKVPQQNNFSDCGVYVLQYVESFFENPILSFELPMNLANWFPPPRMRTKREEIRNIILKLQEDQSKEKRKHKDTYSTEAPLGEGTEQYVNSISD

[3] = biological target: T4, Sentrin-specific protease 8 (Homo sapiens, UniProt Q96LD8); assay type: functional;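 note: luminescence read-out of SENP8 inhibition, dose-response confirmation following an ultra-high-throughput screen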
T4 sequence (Q96LD8 whole entry): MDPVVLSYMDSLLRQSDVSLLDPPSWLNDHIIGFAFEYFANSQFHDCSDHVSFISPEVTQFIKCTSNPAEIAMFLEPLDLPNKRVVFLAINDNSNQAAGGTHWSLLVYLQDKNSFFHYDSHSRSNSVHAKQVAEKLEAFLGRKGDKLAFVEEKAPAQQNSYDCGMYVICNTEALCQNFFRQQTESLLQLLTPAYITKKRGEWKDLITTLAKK

Protein skinhead-1 = biological target: T5, Protein skinhead-1 (Caenorhabditis elegans, UniProt P34707); assay type: functional
T5 sequence (P34707 whole entry): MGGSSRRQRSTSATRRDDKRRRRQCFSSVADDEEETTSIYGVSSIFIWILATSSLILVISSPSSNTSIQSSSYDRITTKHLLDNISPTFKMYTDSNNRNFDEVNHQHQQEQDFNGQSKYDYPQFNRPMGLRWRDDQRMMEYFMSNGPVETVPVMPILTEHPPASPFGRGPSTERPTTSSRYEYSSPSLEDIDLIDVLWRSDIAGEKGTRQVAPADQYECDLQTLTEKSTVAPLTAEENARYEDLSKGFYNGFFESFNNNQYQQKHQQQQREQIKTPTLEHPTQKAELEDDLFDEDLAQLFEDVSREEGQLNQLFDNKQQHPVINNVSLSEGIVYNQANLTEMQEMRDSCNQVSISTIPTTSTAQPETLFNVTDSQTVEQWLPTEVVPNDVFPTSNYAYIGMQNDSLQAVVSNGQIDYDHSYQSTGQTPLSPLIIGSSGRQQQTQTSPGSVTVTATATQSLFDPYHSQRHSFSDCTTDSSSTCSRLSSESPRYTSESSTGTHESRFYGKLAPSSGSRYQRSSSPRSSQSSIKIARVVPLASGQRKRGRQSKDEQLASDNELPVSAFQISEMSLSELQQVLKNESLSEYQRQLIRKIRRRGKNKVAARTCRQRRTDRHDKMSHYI

[4] = biological target: Heat shock protein HSP 90-alpha (Homo sapiens, UniProt P07900); assay type: functional, organism-based
[5] = test system: Streptococcus sp. 'group A'; assay: Streptococcus pyogenes SK(-)GAS viability under kanamycin – luminescence, BacTiterGlo, confirmation, counter-screen for streptokinase expression inhibitor project, dose response (AID 1900); assay type: functional, organism-based
Streptokinase A = biological target: T6, Streptokinase A (Streptococcus pyogenes serotype M1, UniProt P10520); assay: viability-normalized secreted streptokinase activity reduction – plasminogen activation absorbance, OD405, dose response (AID 1914); assay type: functional, Streptococcus pyogenes M1 GAS;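 note: secreted streptokinase activity via plasminogen activation per viability signal from cell pellet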
T6 sequence (P10520 whole entry): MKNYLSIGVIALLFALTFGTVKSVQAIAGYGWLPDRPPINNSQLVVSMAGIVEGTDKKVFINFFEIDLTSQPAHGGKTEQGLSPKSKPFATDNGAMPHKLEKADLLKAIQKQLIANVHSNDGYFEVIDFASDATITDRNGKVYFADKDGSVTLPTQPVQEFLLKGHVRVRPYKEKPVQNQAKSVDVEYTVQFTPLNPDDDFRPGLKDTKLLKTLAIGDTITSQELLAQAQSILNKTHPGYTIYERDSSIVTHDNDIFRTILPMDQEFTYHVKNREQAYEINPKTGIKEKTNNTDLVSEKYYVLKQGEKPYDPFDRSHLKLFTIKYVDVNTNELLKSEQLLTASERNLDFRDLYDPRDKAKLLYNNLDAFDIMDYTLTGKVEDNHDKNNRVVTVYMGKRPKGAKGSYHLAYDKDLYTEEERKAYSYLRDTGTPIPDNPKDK

[6] = Trypanosoma cruzi growth suppression in host cells – NIH3T3 host cells, beta-gal luminescence, confirmation (AID 2044); assay type: functional, cell-based;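 note: intracellular parasites grown in NIH/3T3 mouse fibroblasts as host cells; luminescent beta-galactosidase reporter signal from transgenic T. cruzi replicating inside host cells; inhibitors lower the luminescence signal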
[7] = NIH3T3 cell viability loss – ATP luminescence, mouse fibroblasts, counter-screen, dose response (AID 2010); assay type: functional, cell-based;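 note: cells exposed to compound for about 90 hours before reading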
Streptococcus = assay: GAS UMAA2166 growth inhibition – luminescence, BacTiterGlo, counter-screen for streptokinase expression inhibitor project, dose response (AID 1915); assay type: functional, organism-based;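 note: potency for reduction of bacterial viability or growth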
Vero = assay: cells; assay type: functional; conditions: Chlorocebus sabaeus
[8] = luciferase reporter signal suppression in cells – H4 neuroglioma cells, luminescence, dose response (AID 1990); assay type: functional, cell-based
cells [9] = assay type: functional, cell-based
[10] = Luminescence Cell-Based Dose Response HTS to Identify Inhibitors of 5'UTR Stem-Loop Driven Prion Protein mRNA Translation in H4 Neuroglioblastoma Cells. [Related pubchem assays: 1827 (Project Summary), 1813 (Primary HTS)]; assay type: functional
[11] = alpha-synuclein stem-loop luciferase translation blockers – H4 neuroglioma cells, luminescence, confirmation (AID 1988); assay type: functional, cell-based
[12] = microbe, parasite or virus in culture; assay type: functional; conditions: Mycobacterium tuberculosis
cells [13] = assay type: functional, cell-based; remark: listed apart in the source
INS1 = assay: INS-1E survival protection against cytokine death – cell-based, luminescence, retest, dose response (AID 449756); assay type: functional; conditions: Rattus norvegicus;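 note: cell death triggered by IL-1 beta plus TNF-alpha plus IFN-gamma mixture; protective hits raise ATP signal compared with cytokine alone wells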

Compound	IC50 (Caspase-3)	IC50 [1]	IC50 [2]	IC50 [3]	EC50 [6]	EC50 [7]	CC50 (Vero)	also measured
CCCOc1ccc(C(=O)Nc2ccc(Cl)cn2)cc1	7.83 µM (active)	3.22 µM (active)	16.1 µM (active)	9.81 µM (active)	–	–	–	IC50 (Protein skinhead-1): 100 µM (inactive)
O=C1/C(=C\c2ccc(O)c(O)c2)SC(=S)N1Cc1ccccc1	67.5 µM (active)	13 µM (active)	11.5 µM (active)	10.7 µM (active)	–	–	–	AC50 [4]: 3.11 µM (active)
COc1ccc(OC)c(/C=C/c2ccc3cccc(O)c3n2)c1	–	–	–	–	2.07 µM (active)	> 30 µM (not active)	9.5 µM (active)	EC50 [5]: 0.323 µM (active); EC50 (Streptokinase A): > 150 µM (not active); EC50 (Streptococcus): 10.7 µM (active)
COc1ccc(-c2cc3ccc(OC)cc3cn2)cc1	15.8 µM (active)	1.69 µM (active)	> 100 µM (inactive)	> 100 µM (inactive)	–	–	–	–
O=C(N/N=C(\c1ccccc1)c1ccccn1)c1ccccc1Cl	–	–	–	–	0.852 µM (active)	5.45 µM (active)	6.17 µM (active)	EC50 [8]: 2.03 µM (active); EC50 (cells [9]): 12.1 µM (active); EC50 [10]: 4.49 µM (active); EC50 [11]: 0.472 µM (active); CC50 [12]: 5.75 µM (active); EC50 (cells [13]): > 350 µM (not active); AC50 (INS1): 1.27 µM (active)
